# Test results from patent US20250339409A1, “USES OF PAN BET INHIBITORS” (VYNE THERAPEUTICS INC., priority 2021, published 2025).
# Where “and” joins values, the source holds several entries; their conditions need not be identical. Equal values may be shown once. Marks after values point to notes of the source that are not given here.
# System: anti collagen antibodies induced arthritis (ACAIA)
# Test: Anti collagen antibodies induced arthritis (ACAIA) in mice, intra-articular treatment: paw thickness, arthritis clinical score, body weight;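 further: mouse arthritis induced by IV anti-collagen mAb on day 0 plus IP LPS on day 4, with body weight, caliper paw thickness and 0-4 paw score tracked against a day 0 baseline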
structure (smiles),measurement,setting,value
Cn1cc(-c2cccc(O)c2Oc2ccccc2)c2cc[nH]c2c1=O [BETi1],Paw thickness of treated leg (Avg.),"0.1 mg/kg IA (Group 4), Day 7",2.82 mm
same,Paw thickness of untreated leg (Avg.),"0.1 mg/kg IA (Group 4), Day 7",2.87 mm
same,Percent change of weight per day (Av),"0.1 mg/kg IA (Group 4), Day 7",88.48%
same,"Δ clinical score untreated -treated, Avg. Delta","0.1 mg/kg IA (Group 4), Day 7",0.00 points
same,Clinical score of treated leg (Avg.),"0.1 mg/kg IA (Group 4), Day 8",2.29 points
same,Paw thickness Avg. Delta untreated -treated,"0.1 mg/kg IA (Group 4), Day 8",−0.05 mm
same,Paw thickness of treated leg (Avg.),"0.1 mg/kg IA (Group 4), Day 8",2.86 mm
same,Paw thickness of untreated leg (Avg.),"0.1 mg/kg IA (Group 4), Day 8",2.81 mm
same,Percent change of weight per day (Av),"0.1 mg/kg IA (Group 4), Day 8",87.72%
same,"Δ clinical score untreated -treated, Avg. Delta","0.1 mg/kg IA (Group 4), Day 8",0.00 points
same,Clinical score of treated leg (Avg.),"0.1 mg/kg IA (Group 4), Day 10",2.43 points
same,Paw thickness Avg. Delta untreated -treated,"0.1 mg/kg IA (Group 4), Day 10",0.05 mm
same,Paw thickness of treated leg (Avg.),"0.1 mg/kg IA (Group 4), Day 10",2.94 mm
same,Paw thickness of untreated leg (Avg.),"0.1 mg/kg IA (Group 4), Day 10",2.99 mm
same,Percent change of weight per day (Av),"0.1 mg/kg IA (Group 4), Day 10",88.75%
same,"Δ clinical score untreated -treated, Avg. Delta","0.1 mg/kg IA (Group 4), Day 10",0.14 points
same,Clinical score of treated leg (Avg.),"0.1 mg/kg IA (Group 4), Day 12",2.57 points
same,Paw thickness Avg. Delta untreated -treated,"0.1 mg/kg IA (Group 4), Day 12",−0.05 mm
same,Paw thickness of treated leg (Avg.),"0.1 mg/kg IA (Group 4), Day 12",3.10 mm
same,Paw thickness of untreated leg (Avg.),"0.1 mg/kg IA (Group 4), Day 12",3.05 mm
same,Percent change of weight per day (Av),"0.1 mg/kg IA (Group 4), Day 12",93.51%
same,"Δ clinical score untreated -treated, Avg. Delta","0.1 mg/kg IA (Group 4), Day 12",0.43 points
same,Clinical score of treated leg (Avg.),"1 mg/kg IA (Group 3), Baseline",0.00 points
same,Paw thickness Avg. Delta untreated -treated,"1 mg/kg IA (Group 3), Baseline",0.04 mm
same,Paw thickness of treated leg (Avg.),"1 mg/kg IA (Group 3), Baseline",2.05 mm
same,Paw thickness of untreated leg (Avg.),"1 mg/kg IA (Group 3), Baseline",2.09 mm
same,Percent change of weight per day (Av),"1 mg/kg IA (Group 3), Baseline",100.00%
same,Percent change of weight per day (individual animal),"1 mg/kg IA (Group 3), Baseline",100%
same,"Δ clinical score untreated -treated, Avg. Delta","1 mg/kg IA (Group 3), Baseline",0.00 points
same,Clinical score of treated leg (Avg.),"1 mg/kg IA (Group 3), Day 3",0.00 points
same,Paw thickness Avg. Delta untreated -treated,"1 mg/kg IA (Group 3), Day 3",0.02 mm
same,Paw thickness of treated leg (Avg.),"1 mg/kg IA (Group 3), Day 3",2.11 mm
same,Paw thickness of untreated leg (Avg.),"1 mg/kg IA (Group 3), Day 3",2.13 mm
same,Percent change of weight per day (Av),"1 mg/kg IA (Group 3), Day 3",99.97%
same,Percent change of weight per day (individual animal),"1 mg/kg IA (Group 3), Day 3",100.9804% and 98.22% and 102.4631% and 98.49% and 97.67%
same,"Δ clinical score untreated -treated, Avg. Delta","1 mg/kg IA (Group 3), Day 3",0.00 points
same,Clinical score of treated leg (Avg.),"1 mg/kg IA (Group 3), Day 4",0.00 points
same,Paw thickness Avg. Delta untreated -treated,"1 mg/kg IA (Group 3), Day 4",−0.03 mm
same,Paw thickness of treated leg (Avg.),"1 mg/kg IA (Group 3), Day 4",2.22 mm
same,Paw thickness of untreated leg (Avg.),"1 mg/kg IA (Group 3), Day 4",2.19 mm
same,Percent change of weight per day (Av),"1 mg/kg IA (Group 3), Day 4",101.40%
same,Percent change of weight per day (individual animal),"1 mg/kg IA (Group 3), Day 4",101.9608% and 100% (2×) and 103.9409% and 100.9302%
same,"Δ clinical score untreated -treated, Avg. Delta","1 mg/kg IA (Group 3), Day 4",0.00 points
same,Clinical score of treated leg (Avg.),"1 mg/kg IA (Group 3), Day 5",0.00 points
same,Paw thickness Avg. Delta untreated -treated,"1 mg/kg IA (Group 3), Day 5",0.04 mm
same,Paw thickness of treated leg (Avg.),"1 mg/kg IA (Group 3), Day 5",2.13 mm
same,Paw thickness of untreated leg (Avg.),"1 mg/kg IA (Group 3), Day 5",2.17 mm
same,Percent change of weight per day (Av),"1 mg/kg IA (Group 3), Day 5",91.68%
same,Percent change of weight per day (individual animal),"1 mg/kg IA (Group 3), Day 5",93.63% and 89.78% and 94.58% and 88.94% and 89.3%
same,"Δ clinical score untreated -treated, Avg. Delta","1 mg/kg IA (Group 3), Day 5",0.00 points
same,Clinical score of treated leg (Avg.),"1 mg/kg IA (Group 3), Day 6",0.14 points
same,Paw thickness Avg. Delta untreated -treated,"1 mg/kg IA (Group 3), Day 6",0.23* mm
same,Paw thickness of treated leg (Avg.),"1 mg/kg IA (Group 3), Day 6",2.27* mm
same,Paw thickness of untreated leg (Avg.),"1 mg/kg IA (Group 3), Day 6",2.50 mm
same,Percent change of weight per day (Av),"1 mg/kg IA (Group 3), Day 6",89.39%
same,Percent change of weight per day (individual animal),"1 mg/kg IA (Group 3), Day 6",91.67% and 82.67% and 92.61% and 90.45% and 89.77%
same,"Δ clinical score untreated -treated, Avg. Delta","1 mg/kg IA (Group 3), Day 6",0.57 points
same,Clinical score of treated leg (Avg.),"1 mg/kg IA (Group 3), Day 7",0.71 points
same,Paw thickness Avg. Delta untreated -treated,"1 mg/kg IA (Group 3), Day 7",0.56* mm
same,Paw thickness of treated leg (Avg.),"1 mg/kg IA (Group 3), Day 7",2.25** mm
same,Paw thickness of untreated leg (Avg.),"1 mg/kg IA (Group 3), Day 7",2.80 mm
same,Percent change of weight per day (Av),"1 mg/kg IA (Group 3), Day 7",89.93%
same,Percent change of weight per day (individual animal),"1 mg/kg IA (Group 3), Day 7",89.71% and 84% and 93.1% and 89.45% and 90.23%
same,"Δ clinical score untreated -treated, Avg. Delta","1 mg/kg IA (Group 3), Day 7",0.71 points
same,Clinical score of treated leg (Avg.),"1 mg/kg IA (Group 3), Day 8",1.00 points
same,Paw thickness Avg. Delta untreated -treated,"1 mg/kg IA (Group 3), Day 8",0.56 mm
same,Paw thickness of treated leg (Avg.),"1 mg/kg IA (Group 3), Day 8",2.36* mm
same,Paw thickness of untreated leg (Avg.),"1 mg/kg IA (Group 3), Day 8",2.92 mm
same,Percent change of weight per day (Av),"1 mg/kg IA (Group 3), Day 8",91.22%
same,Percent change of weight per day (individual animal),"1 mg/kg IA (Group 3), Day 8",90.69% and 88% and 92.61% and 89.95%
same,"Δ clinical score untreated -treated, Avg. Delta","1 mg/kg IA (Group 3), Day 8",1.43 points
same,Clinical score of treated leg (Avg.),"1 mg/kg IA (Group 3), Day 10",0.71 points
same,Paw thickness Avg. Delta untreated -treated,"1 mg/kg IA (Group 3), Day 10",0.74 mm
same,Paw thickness of treated leg (Avg.),"1 mg/kg IA (Group 3), Day 10",2.21* mm
same,Paw thickness of untreated leg (Avg.),"1 mg/kg IA (Group 3), Day 10",2.95 mm
same,Percent change of weight per day (Av),"1 mg/kg IA (Group 3), Day 10",93.11%
same,Percent change of weight per day (individual animal),"1 mg/kg IA (Group 3), Day 10",92.16% and 94.67% and 93.6% and 93.47%
same,"Δ clinical score untreated -treated, Avg. Delta","1 mg/kg IA (Group 3), Day 10",1.29 points
same,Clinical score of treated leg (Avg.),"1 mg/kg IA (Group 3), Day 12",0.57 points
same,Paw thickness Avg. Delta untreated -treated,"1 mg/kg IA (Group 3), Day 12",0.80 mm
same,Paw thickness of treated leg (Avg.),"1 mg/kg IA (Group 3), Day 12",2.18 mm
same,Paw thickness of untreated leg (Avg.),"1 mg/kg IA (Group 3), Day 12",2.98 mm
same,Percent change of weight per day (Av),"1 mg/kg IA (Group 3), Day 12",97.09* percent
same,Percent change of weight per day (individual animal),"1 mg/kg IA (Group 3), Day 12",95.1% and 100% and 98.03% and 96.98% and 93.49%
same,"Δ clinical score untreated -treated, Avg. Delta","1 mg/kg IA (Group 3), Day 12",1.86 points
same,"reduction of arthritis score, treated vs untreated paw","1 mg/kg IA, day 12",76.5%
same,"reduction of paw thickness, treated vs untreated paw","1 mg/kg IA, day 12",26.8%
